We go through five compounds from publication PMC7694207, “Functional Characterization of the N-Acetylmuramyl-L-Alanine Amidase, Ami1, from Mycobacterium abscessus” (Cells, 2020).

Non-standard residues stand in square brackets, D forms with d. Residues, ends and D or L forms follow the SMILES beside them.

Assay [1] has as its target T1, Ami1Mab (Mycobacteroides abscessus, UniProt B1MFL7).
T1 construct: gene MAB_0318c; first 40 residues (signal peptide) removed; pET151 N-terminal tag cut by TEV; E. coli BL21(DE3) pRARE2; zinc enzyme
Put plainly: TLC hydrolysis assay, ninhydrin. The following applies: PBS, 37 °C, 30 min; Zn2+-dependent. It counts as biochemical.

Another assay deals with T2, Ami1Mtb (Mycobacterium tuberculosis, UniProt I6Y4D2).
T2 construct: gene Rv3717
T2 sequence (I6Y4D2 whole entry, looked up): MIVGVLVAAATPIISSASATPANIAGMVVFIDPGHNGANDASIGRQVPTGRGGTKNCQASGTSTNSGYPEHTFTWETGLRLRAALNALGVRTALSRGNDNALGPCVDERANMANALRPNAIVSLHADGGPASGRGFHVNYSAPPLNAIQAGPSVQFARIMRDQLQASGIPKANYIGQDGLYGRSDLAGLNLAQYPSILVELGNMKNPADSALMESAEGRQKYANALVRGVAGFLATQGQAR
It counts as biochemical.

Assay [2] has as its target T1, Ami1Mab. Briefly: X-ray co-crystal structure, […] Å. It counts as binding. The following applies: co-crystallized with 5 mM dipeptide; active site near Zn2+.
The target in assay [3] is T1, Ami1Mab. Put plainly: TLC-based muramyl-dipeptide hydrolysis assay. The following applies: substrate MDP; PBS; 37 °C. It counts as biochemical.
The target of assay [4] is T1, Ami1Mab. Briefly: TLC-based muramyl-dipeptide hydrolysis assay. It counts as biochemical. The following applies: substrate MDP; PBS; 37 °C; compound numbering as in Results.
The target of assay [5] is T1, Ami1Mab. Briefly: TLC-based muramyl-dipeptide hydrolysis assay. The assay is classed as biochemical. The following applies: substrate MDP; PBS; 37 °C; compound numbering as in Results. This is another data set of the same source.

T1 sequence (B1MFL7 entry or part of it): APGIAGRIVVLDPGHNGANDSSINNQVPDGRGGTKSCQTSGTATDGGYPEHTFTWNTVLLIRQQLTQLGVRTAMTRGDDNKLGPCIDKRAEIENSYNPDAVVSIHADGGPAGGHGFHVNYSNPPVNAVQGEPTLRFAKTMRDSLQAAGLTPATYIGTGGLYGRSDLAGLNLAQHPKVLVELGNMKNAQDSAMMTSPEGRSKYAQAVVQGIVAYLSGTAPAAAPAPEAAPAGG

For `CC(=O)N[C@H]1C(O)O[C@H](CO)[C@@H](O)[C@@H]1O[C@H](C)C(=O)N[C@@H](C)C(=O)N[C@H](CCC(=O)O)C(N)=O` (stereo partly drawn) [muramyl-dipeptide], the “TLC hydrolysis assay, ninhydrin” value at Ami1Mab [1] is “MDP was rapidly hydrolyzed by Ami1Mab”; on Ami1Mtb it was “Activity of both Ami1Mab and Ami1Mtb is inhibited after incubation with EDTA”. As for `C[C@H](N)C(=O)N[C@H](CCC(=O)O)C(N)=O` [L-Ala-D-IsoGln] (H-Ala-[dE]-NH2), the “X-ray co-crystal structure, 1.7 Å” value at Ami1Mab [2] is given as “The co-crystal structure of Ami1Mab bound to L-Ala-D-IsoGln was also solved”. Consider `O=C(O)c1coc2ccnc(Cl)c12` [compound 1, 4-chlorofuro [3,2-c]pyridine-3-carboxylic acid], for which the “inhibitory effect, starting at” value at Ami1Mab [3] was in the range of 150 to 200 µM.

For the compound `Nc1ccccc1-c1nn[nH]n1` [compound 2, 2-(1H-1,2,3,4-tetrazol-5-yl)aniline], the “inhibitory activity starting at” value at Ami1Mab [4] is 800 µM.

As to `O=C(O)c1ccnc(Cl)c1C(=O)O` [compound 3, 2-chloropyridine-3,4-dicarboxylic acid], the “inhibitory effect, starting between” value at Ami1Mab [5] was in the range of 250 to 500 µM.
